# Test results from PMC9184620, “TAS1553, a small molecule subunit interaction inhibitor of ribonucleotide reductase, exhibits antitumor activity by causing DNA replication stress” (Communications Biology, 2022).
# Legend:
# [1] = biological target: T1, interaction between R1 and R2 (human RNR) (Homo sapiens, UniProt P23921); assay: AlphaLISA binding assay (interaction between His-R1 and GST-R2); conditions: recombinant R1 and R2; mean ± SD
# T1 construct: host or cells: Escherichia coli (His-R1)
# T1 sequence (P23921 1-792): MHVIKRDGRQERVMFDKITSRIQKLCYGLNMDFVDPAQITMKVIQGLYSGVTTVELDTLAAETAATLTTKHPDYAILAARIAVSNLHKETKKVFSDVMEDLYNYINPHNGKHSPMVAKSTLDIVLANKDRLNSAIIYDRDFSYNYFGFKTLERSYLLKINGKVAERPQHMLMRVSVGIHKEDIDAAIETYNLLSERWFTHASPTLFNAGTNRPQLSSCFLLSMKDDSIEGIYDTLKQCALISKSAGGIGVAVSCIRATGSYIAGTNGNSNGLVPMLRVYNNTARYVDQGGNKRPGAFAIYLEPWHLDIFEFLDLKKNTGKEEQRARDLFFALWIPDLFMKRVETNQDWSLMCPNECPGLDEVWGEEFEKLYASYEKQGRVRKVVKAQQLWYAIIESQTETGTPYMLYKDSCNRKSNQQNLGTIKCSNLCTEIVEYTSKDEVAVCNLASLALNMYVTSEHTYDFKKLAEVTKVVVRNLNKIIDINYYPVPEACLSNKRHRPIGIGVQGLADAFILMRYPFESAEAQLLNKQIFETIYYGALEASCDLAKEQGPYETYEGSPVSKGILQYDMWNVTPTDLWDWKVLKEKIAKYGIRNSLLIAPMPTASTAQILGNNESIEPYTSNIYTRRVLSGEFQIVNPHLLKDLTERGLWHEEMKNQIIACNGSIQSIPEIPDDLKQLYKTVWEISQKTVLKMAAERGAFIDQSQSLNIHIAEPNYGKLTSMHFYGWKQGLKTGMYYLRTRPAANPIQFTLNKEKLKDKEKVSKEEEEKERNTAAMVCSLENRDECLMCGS
# [2] = biological target: T2, RNR (R1 and R2 recombinant proteins) (Homo sapiens, UniProt P23921); assay: RNR assay (formation of dCDP from CDP); type: biochemical; conditions: CDP to dCDP; mean ± SD; read-out: Enzyme IC50
# T2 construct: made in house; host or cells: Escherichia coli
# T2 sequence (P23921 1-792): T1 sequence (P23921 1-792)
# Procedure: The binding affinity of TAS1553 to the R1 subunit was investigated using surface plasmon resonance (SPR) binding analysis. […] Next, we evaluated the inhibitory effect of TAS1553 against the enzymatic activity of RNR, consisting of R1 and R2 recombinant proteins. RNR activity was determined by its ability to reduce cytidine diphosphate (CDP) to deoxycytidine diphosphate (dCDP), based on a previous report. […] In addition to the inhibitory effect on RNR, TAS1553 was evaluated in a Eurofins LeadProfilingScreen panel assay including 68 proteins, such as ion channels, transporters, nuclear receptors, and G protein-coupled receptors, to examine its potential adverse activity.
# The inhibition of RNR activity by the test compound was evaluated by measuring the formation of dCDP from CDP, as reported previously. The assay was performed for 30 min at 37 °C in a reaction mixture composed of 50 mmol/L HEPES, 4 mmol/L magnesium acetate, 100 mmol/L KCl, 6 mmol/L DTT, 2 mmol/L ATP, 0.24 mmol/L NADPH, 10.0 µmol/L CDP, 0.1 mg/mL BSA, 8.0 µg/mL His-R1, 2.4 µg/mL His-R2, and 1% DMSO with or without test compound. The reaction was discontinued by heat treatment at 95 °C for 5 min. The amount of dCDP after the reaction was quantified by a prominence HPLC system and LabSolutions software (SHIMADZU CORPORATION). Separations were performed at 265 nm in a Shim-pack XR-ODS column of particle size 2.2 μm (100 × 3.0 mm, SHIMADZU GLC Ltd.). Overall, 5 µL of each sample was injected, and chromatography was performed at 40 °C. Mobile A was composed of 10 mmol/L potassium dihydrogenphosphate, 10 mmol/L tetrabutylammonium hydroxide, 0.25% methanol and 8 mmol/L HCl. Mobile B was composed of 50 mmol/L potassium dihydrogenphosphate, 5.6 mmol/L tetrabutylammonium hydroxide, and 30% methanol. The gradient was as follows: 52–60% B for 9 min, 60–99% B for 1 min, 99% B for 5 min, 99–52% B for 1 min, and 52% B for 5 min. The flow rate was 0.5 mL/min. The experiment was performed in triplicates. IC50 values were calculated using the SAS software package.
# [3] = test system: human solid and hematological cancer cell lines; assay: Cell proliferation assay (CellTiter-Glo), cell line panel; type: cell-based; conditions: 72 h, range over solid and hematological cancer cell lines, 3 days exposure
# Procedure: The growth inhibitory effect of TAS1553 was determined by calculating the GI50 value against human solid and hematological cancer cell lines.
# Cell proliferation assay was performed as reported previously. Briefly, cells were plated and incubated for 1 day, followed by 3 days of exposure to the compound. After compound exposure, viable cells were detected by using the CellTiter-Glo luminescent cell viability assay (Promega). GI50 values were calculated using the SAS software package. The experiment was performed in triplicates.
# MV-4-11 xenograft = assay: Antitumor activity in rats bearing MV-4-11 xenografts; type: in vivo
# Procedure: Next, we evaluated the antitumor activity of a high-dose administration of TAS1553 and cytarabine in rats bearing MV-4-11 xenografts. […] The rats were treated with cytarabine for 5 days at 16 and 32 mg/kg. […] In addition to the hematologic tumor, we evaluated the antitumor activity of TAS1553 in mice implanted with HCC38 cell line as a solid tumor model. […] Finally, TAS1553 was evaluated for its survival benefit in a mouse model. To achieve this, we established mice bone marrow cells harboring the human MLL-AF9 fusion gene, which is known as a driver gene for AML in humans as well as mice[48].
# For the subcutaneous implantation model of MV-4-11, F344/NJcl-rnu/rnu rats were irradiated with X-ray (4 Gy) to improve the efficiency of xenograft implantation. Two days after X-ray irradiation, MV-4-11 cells suspended in PBS with 50 vol% Matrigel were inoculated into the rats (2 × 10^7 cells/animal). In the mice subcutaneous implantation model, HCC38 cells suspended same as above were inoculated into male BALB/cAJcl-nu/nu mice (1 × 10^7 cells /body). […] Antitumor activity and body weight change were evaluated as previously reported. Dunnett test using the SAS software package in EXSUS (CAC Croit) was used to compare the tumor volume (P < 0.05).
# [4] = 400 mg/kg oral once daily for 14 days
compound,measurement,setting,value
"Cc1ccc(F)c([C@@H](C)[C@H](NS(=O)(=O)c2ccc(Cl)cc2C(N)=O)c2n[nH]c(=O)o2)c1C [TAS1553, 5-chloro-2-{N-[(1S,2R)-2-(6-fluoro-2,3-dimethylphenyl)-1-(5-oxo-4,5-dihydro-1,3,4-oxadiazol-2-yl)propyl]sulfamoyl}benzamide]",IC50,[1],39.6 ± 4.2 nM
same,IC50,[2],54.2 ± 6.1 nM
same,GI50,[3],228 to 4150 nM
same,T/C (mean tumor volume treated/control) on Day 15,MV-4-11 xenograft; 50 mg/kg oral once daily for 14 days,52.0%
same,T/C (mean tumor volume treated/control) on Day 15,MV-4-11 xenograft; 100 mg/kg oral once daily for 14 days,45.0%
same,T/C (mean tumor volume treated/control) on Day 15,MV-4-11 xenograft; 200 mg/kg oral once daily for 14 days,29.4%
same,body weight change,MV-4-11 xenograft; [4],without a reduction in body weight
same,tumor growth outcome,MV-4-11 xenograft; [4],tumor disappearance in all the treated animals
same,body weight change,"MV-4-11 xenograft; 50, 100, 200 mg/kg oral once daily for 14 days",none of the groups showed any dramatic weight loss
